Measured values published in patent US6552176B2, “Salt forms of 6-n-butylamino-6-deoxy-α-L-sorbofuranose” (G. D. Searle & Co., priority 1990, dated 2003).

Assays:
[1] = Autoclaving of N-butylglucamine reaction solution, HPLC comparison before and after; type: physicochemical; conditions: 5% (weight/volume) solution, 20 mM MgSO4, pH 5.0; 121° C., 30 P.S.I., 30 minutes
Procedure: The reaction solution can also be sterilized by autoclaving, as described below. A 5% (weight/volume) solution of N-butylglucamine containing 20 mM MgSO4, at pH 5.0, was autoclaved in a 500 ml shake flask with a silicon closure in place. The conditions for autoclaving were 121° C., 30 P.S.I., for 30 minutes. The pH was checked afterwards and found to be 5.0 at room temperature. There was no visible change in the color or the clarity of the solution, an indication that no caramelization or precipitation had occurred. […] Controls (not autoclaved) indicated at least 90% conversion at 48 hours, also. Autoclaving can therefore be used as a method for sterilizing the reaction solution.

[2] = cited from earlier work

Compound | stability of solution to autoclaving (HPLC before vs after) [1] | exposure concentration producing nose and throat irritation ([2]; exposure to as little as) | hazard description per Material Safety Data Sheets ([2]; supplier MSDS (Fisher Scientific))
CCCCNC[C@H](O)[C@@H](O)[C@H](O)[C@H](O)CO [N-butylglucamine] | the same |  | 
CCCCN [N-n-butylamine] |  | 5-10 ppm | toxic and a severe eye, skin and mucous membrane irritant
